Measurements reported in patent US9068977B2, “Non-linear rotation rates of remotely driven particles and uses thereof” (THE REGENTS OF THE UNIVERSITY OF MICHIGAN, priority 2007, dated 2015).

Columns and labels:
E. coli K-12 bacteria = assay: Effect of antibiotic on bacterial growth, monitored by nonlinear rotation of magnetic particles; type: cell-based; settings: 5% w/v Ampicillin antibiotic solution; cluster of 40 μm magnetic particles attached to small colony; Luria Broth (Miller) Growth Media; FIG. 9 bottom curve
Text: The top curve is for several particles attached to a small colony of E. coli K-12 bacteria in Luria Broth (Miller) Growth Media. The rotational period increases over time, indicating bacterial grow. […] In certain configurations, especially when particles are at an interface, such as an air-liquid interface, the nonlinear rotation may occur in a plane perpendicular to the plane of the external driving magnetic field. This type of nonlinear rotation occurred in the above exemplary measurement.

E. coli = assay: Growth of bacteria attached to a magnetic microsphere, monitored by nonlinear rotation period; type: cell-based; settings: bacteria exposed to isopropyl alcohol (70%) for 15 minutes; control, FIG. 4d circles; growth media alone gave 75% increase over 25 min
Text: Rotation rates were observed under fluorescent, reflection, and bright-field microscopy. FIG. 4(a) was obtained by measuring the average rotation rate of a magnetic microsphere (with an attached E. coli) for increasing magnetic driving frequencies. The critical frequency, where the magnetic particle goes from synchronous with driving field to asynchronous (nonlinear), occurs abruptly at 1.27 Hz. Measurements for (b), (c), and (d) were then made in this nonlinear regime. Bacteria attached to magnetic microspheres were optically detected by fluorescence of DsRed fluorescent protein transformed bacteria.
The magnetic microspheres with one bacterium attached rotated 33.8 times slower than the blank microspheres. […] There was an incremental 75% increase in rotation period over 25 min.

Row | Compound | normalized rotational period over time (indicator of bacterial growth) (E. coli K-12 bacteria) | change in normalized rotation period (growth of attached bacteria) (E. coli)
1 | CC1(C)S[C@@H]2[C@H](NC(=O)[C@H](N)c3ccccc3)C(=O)N2[C@H]1C(=O)O [Ampicillin] | decreases or stays constant over time | 
2 | CC(C)O [isopropyl alcohol] |  | an increase just within the limits of the error bars
